Results published in US20210153484A1, “Humanized Mouse Model” (The Wistar lnstitute, priority 2018, published 2021).
“Also recorded” adds a separate entry of the source.

What was measured:
[1] = tested on: tumor-infiltrating immune cells; assay: IHC, MassCyTOF and RNA-seq/CIBERSORT analysis of tumors from anti-PD1 treated Hu-mice; type: in vivo, mouse
Method: (§1) IHC staining was performed as previously described (Somasundaram et al 2017). Briefly, tissue sections were subjected to antigen retrieval by incubation with Target Retrieval Solution (Citrate [S1699] or Tris-EDTA buffers [S2367]; Agilent-DAKO, Santa Clara, Calif.) kit at 95° C. for 20 min and subsequently incubated with primary antibodies with optimum dilutions (FOXP3 [1:10]; CD4, HLA class I, HMB45 and mast cell tryptase [all at 1:100 dilution]; CD68, IgA and IgE [all at 1:400 dilution] and CD8 [1:500 dilution]. For detection of primary antibodies slides were incubated with anti-mouse, anti-rat or anti-rabbit antibodies at 1:1000 dilution and visualized by DAB (SK-4100) or AEC (SK-4200; both Vector Laboratories, Burlingame, Calif.) chromogens.
CyTOF staining was performed as previously described (Wang et al 2019). Briefly, carrier-free antibodies were commercially obtained and tagged with lanthanide metals using the Maxpar X8 metal conjugation kit from Fluidigm^R (201300, Ontario, Canada). Antigen retrieval was performed on deparaffinized tissue sections at 95° C. for 30 min in Tris/EDTA buffer, slides were cooled, blocked with 3% BSA-PBS solution and incubated with cocktail of antibodies (100 ul) overnight at 4° C. Next day slides were washed 3× with PBS and labeled with 1:400 dilution of Intercalator-Ir (Fluidigm 201192B) in PBS for 30 min at RT. Slides were washed with water (3×) and air dried for 30 mins before image mass cytometry acquisition using Fluidigm Hyperion Imaging System.
RNAseq was done using ScriptSeq RNA-seq library preparation kit (Illumina, [BHMR1205], San Diego, Calif.). Quality control of RNA and DNA library was done using the Tapestation 4200 and Bioanalyzer 2100 system (Agilent, Santa Clara, Calif.). Library quantification was done using the Kapa Library Quantification qPCR kit (Roche, [KK4854], Pleasanton, Calif.) and subjected to a 75 bp paired-end sequencing run on Illumina's NExtSeq 500 high output kit following the manufacturer's protocol. RNA-seq analysis was performed using RSEM v1.2.12 software and downstream expression analysis was done using Differential2 (Shuai Wu et al. Nature Commun. 2018; 9: 4166). RNA-seq data was used to enumerate tumor-infiltrating leukocytes using CIBERSORT, an analytical tool available online (cibersort.stanford.edu) (Chen et al. Methods Mol. Biol. 2018; 1711:243-259).
In order to understand the phenomenon of mixed therapy responses to anti-PD1 treatment, IHC, multiplexed imaging using MassCyTOF and RNA-seq was performed on tumors obtained from anti-PD1 treated Hu-mice and they were compared with control Ig treated mice. […]

[2] = tested on: A375 [HLA-A2] melanoma cells; assay: Anti-PD1 therapy in Hu-mice melanoma model, A375 tumors; type: in vivo, mouse; conditions: anti-PD1 10 mg/kg i.p. weekly
Method: (§2) FIGS. 8A-8H illustrate functional characterization of human immune cells in humanized mice. FIGS. 8A-8C show T- and B-cell response to hTERT vaccine. FIG. 8A is a schema for hTERT DNA vaccination. Hu-mice received a total of 3 injections of hTERT vaccine (hTERT DNA [50 μg; i.m] followed by electroporation) every 2 weeks and the mice were sacrificed 1 week after the last injection to determine T- and B-cell responses. […] Spleen cells from Hu-mice (n=3) were stimulated overnight (18 h) with pools of overlapping hTERT peptides (15 mer; 2 μg/ml/peptide) spanning the entire hTERT protein. Human IFNγ was detected in ELISPOT assay using a kit. […] Endpoint binding titer was determined in sera of hTERT vaccinated mice after 3 immunizations and compared to sera from NSG mice as controls. […] Tumor growth measurements are recorded using digital caliper by an independent researcher. […]
(§3) All animal experiments were performed according to protocols approved by the Wistar Institute's Institutional Animal Care and User Committee (IACUC). […] Six to 8 weeks (>50 days) later, presence of human immune cells was monitored by multi-color flow cytometry using 18 color BD LSR II Analyzer (BD Biosciences; Somasundaram et al. Nat. Commun. 2017, 8(1):607). […] Tumors were measured twice a week using digital calipers.

451LU melanoma = assay: Anti-PD1 therapy in Hu-mice melanoma model, aggressively growing 451LU tumors; type: in vivo, mouse
Method: All animal experiments were performed according to protocols approved by the Wistar Institute's Institutional Animal Care and User Committee (IACUC). NOD/LtSscidIL2Rγ^null (NSG) mice were inbred at The Wistar Institute under license from the Jackson Laboratory. For humanization, fetal liver and thymus were obtained from the same donor (18-22 weeks of gestation). NSG mice (6 to 8 weeks) received thymus graft (1 mm^3) in sub-renal capsule 24 h post myeloablation using Busulfan (30 mg/kg, i.p.; Sigma-Aldrich [B2635], St. Louis, Mo.). This is immediately followed by injection of autologous liver-derived CD34^+ hematopoietic stem cells (10^5 cells/mouse, i.v., FIG. 5A) that was magnetically sorted by microbeads conjugated with anti-human CD34 (Miltenyi Biotec., [130-046-703], Auburn, Calif.; Chen et al. Bio Protoc. (2013) 3(23)). Six to 8 weeks (>50 days) later, presence of human immune cells was monitored by multi-color flow cytometry using 18 color BD LSR II Analyzer (BD Biosciences; Somasundaram et al. Nat. Commun. 2017, 8(1):607). To accelerate human immune cell reconstitution mice received AAV8 encoding human IL-3, IL-7 and GM-CSF (FIG. 5; FIG. 20A; 10^8; iv; Wu, . . . Ertl., et al 2013). […] Tumors were measured twice a week using digital calipers.

mast cells in tumor = assay: Mast cell immunostaining of melanoma patients' tumors after anti-PD1 therapy; type: in vivo, human; conditions: compared to untreated individuals
Method: as §1

[3] = tested on: WM3629 [HLA-A3] melanoma cells; assay: Anti-PD1 therapy in Hu-mice melanoma model, WM3629 tumors; type: in vivo, mouse; conditions: anti-PD1 10 mg/kg i.p. weekly
Method: as §2, §3

human γ/δ+ T-cells = assay: Human T γ/δ cells in reconstituted Hu-mice treated with HMBPP (IHC); type: in vivo, mouse; conditions: HMBPP 50 mg/kg i.p.
Source text: FIGS. 6A-6C illustrate the human immune subpopulation in spleen, thymus, lymph node, small intestines (SI) and lungs of humanized mice. […] Mouse SI and lungs show presence of IgA+ and IgE+ cells (left and right panels) as determined by mouse anti-human IgA or […] antibodies. Minimal staining of mouse cells was observed when the tissue sections were stained with anti-mouse specific antibodies (See FIG. 23). […] Mouse spleen (left panels; a), thymus (middle panels) and mesenteric lymph nodes (right panels) show presence of CD4+ (top panels) and CD8+ (bottom panels) T-cells as determined by IHC staining using anti-human CD4 or CD8 antibodies. […] Presence of T γ/δ cells were determined in a IHC staining by using mouse anti-human TcR γ/δ antibody.
Besides the presence of human CD45+ cells, the presence of monocytes/myeloid lineage cells HLA DR+, CD33+, CD15+, CD11b+ and CD14+ was observed (FIG. 5D). […] B-cells are fully functional, as antigen specific IgG were detected in circulating blood (see anti-hTERT response below), and IgA and IgE with unknown specificity in the mucosal layers of small intestines and the lungs (FIG. 6B, FIG. 23). Human CD4+ and CD8+ subpopulations of T-cells were detected in spleen, thymus and mesenteric lymph node tissues (FIG. 6C). […]

[4] = compared to control IgG or non-reconstituted NSG mice treated with anti-PD1, listed as Anti-PD1 antibody
[5] = compared to control IgG or non-reconstituted NSG mice treated with anti-PD1, listed as anti-PD1 antibody

With “anti-PD1: anti-PD-1 antibody (Keytruda, Merck, Rahway, N.J.)” the “immune (leukocyte) infiltration in tumor sections” value ([1]; H&E/IHC, compared to control IgG treated / untreated Hu-mice) was “Higher levels of immune infiltration; also recorded: dense leukocyte infiltration”, the “transcription of chemokine genes (CCL2, CCL3, CCL4, CCLS, CXCL9, CXCL10 and CXCL11)” value ([1]; RNA-seq of tumors after anti-PD1 treatment) was “higher transcription” and the “mast cell numbers in tumors (mast cell tryptase IHC)” value ([1]; compared to control Ig treated mice) was “increased numbers”. The “tumor resident mast cells / mast related genes by CIBERSORT of RNA-seq data” value ([1]; tumors from Hu-mice with and without anti-PD1) was “higher presence of tumor resident mast cells; also recorded: higher expression of mast related genes”, the “tumor growth of A375 melanoma” value [2, 4] was “restrict tumor growth” and the “tumor growth of A375 melanoma” value [2, 5] was “significantly restricted tumor growth”. The “immune infiltrating cells by IHC staining” value (451LU melanoma; 451Lu tumors in Hu-mice after anti-PD1) was “No immune infiltrating cells were detected”, the “tumor growth of 451LU melanoma” value (451LU melanoma; Hu-mice, aggressively growing metastatic melanoma) was “negligible effect on growth; also recorded: unable to restrict tumor growth” and the “mast cells in melanoma patients' tumor” value (mast cells in tumor) was “increased presence of mast cells”. The “tumor growth of WM3629 melanoma” value [3, 4] was “restrict tumor growth” and the “tumor growth of WM3629 melanoma” value [3, 5] was “significantly restricted tumor growth”.

For `C/C(=C\COP(=O)(O)OP(=O)(O)O)CO` [HMBPP, hydroxy-2-methyl-2-butenyl 4-pyrophosphate], the “human T γ/δ cells in tissues” value (human γ/δ+ T-cells) was “further expanded”.
